Measured values published in ChEMBL document CHEMBL3425448, “Synthesis of hydrolysis-resistant pyridoxal 5'-phosphate analogs and their biochemical and X-ray crystallographic characterization with the pyridoxal phosphatase chronophin” (Bioorg Med Chem, 2015).

Biological target: T1, Chronophin (Mus musculus, UniProt P60487)
T1 sequence (P60487 whole entry): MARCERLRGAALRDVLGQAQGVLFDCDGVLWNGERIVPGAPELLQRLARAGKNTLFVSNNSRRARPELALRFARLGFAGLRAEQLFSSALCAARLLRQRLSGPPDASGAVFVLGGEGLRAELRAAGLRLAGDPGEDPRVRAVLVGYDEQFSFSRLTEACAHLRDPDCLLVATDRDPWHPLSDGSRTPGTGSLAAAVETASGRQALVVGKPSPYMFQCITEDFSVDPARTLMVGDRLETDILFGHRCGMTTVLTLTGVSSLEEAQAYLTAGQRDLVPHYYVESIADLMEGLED
Assay: Inhibition of recombinant mouse brain PDXP expressed in Escherichia coli BL21 (DE3) cells assessed as pyridoxal 5' phosphate dephosphorylation preincubated for 4 mins followed by substrate addition measured after 5 mins

Q: With `Cc1ncc(CCP(=O)(O)O)c(C=O)c1O` as the compound, how does the IC50 read?
A: Its IC50 is 79 µM.

Q: Which IC50 does the source give for `Cc1ncc(/C=C/P(=O)(O)O)c(C=O)c1O` here?
A: Its IC50 is 246 µM.

Q: For `Cc1ncc(CCP(=O)(O)O)c(CO)c1O`, which IC50 is on record?
A: Its IC50 is 1300 µM.

Q: With `Cc1ncc(/C=C/P(=O)(O)O)c(CO)c1O` as the compound, how does the IC50 read?
A: The IC50 was 1300 µM.
